From patent US12324790B1, “Preparation method and application of micelle preparation containing thymol and derivative thereof” (Nanjing Mucosa Tech Co., Ltd., priority 2024, dated 2025)

How the values were obtained:
[1] = States of preparations observed with the naked eyes (solubilization); type: physicochemical; details: water, without TPGS, apparent concentration 2 mg/ml
Protocol: A surfactant TPGS was selected for solubilization. Preparation method: 40 mg of THY was weighed and placed in a beaker, added with a certain amount of water and TPGS and magnetically stirred at room temperature for 24 h. In micelle preparations 2-8, mass ratios of THY to TPGS were 2:1, 1:1, 1:2.5, 1:5, 1:7, 1:10, 1:15, and 1:20, respectively.
40 mg of THY-Tos was weighed and placed in a beaker, and added with a certain amount of water and TPGS. For Preparations 2 to 5, the mass ratios of THY-Tos to TPGS were 1:1, 1:7, 1:10, and 1:15, respectively. The above micelle preparations were magnetically stirred for 24 h to obtain the final products.

oral ulcer rats = assay: Pharmacodynamic study in NaOH-induced oral ulcer rats; parameters: species or system SD rats; details: rat, in vivo
Excerpt: After 3 days of adaptive feeding, each rat was anesthetized and fixed on an operating table, the labial mucosa of the SD rat was dried with sterile cotton balls, and further sterile cotton balls were used for moisture isolation. A 3 mm×3 mm NaOH crystal was placed on the labial mucosa, and then removed after being maintained for 30 s. A treated area was wiped with sterile cotton balls containing normal saline to remove residual NaOH. […]
An area method was used to macroscopically evaluate the oral ulcer area, a maximum transverse diameter and longitudinal diameter of the ulcer were measured by vernier calipers, which were marked as d1 and d2, respectively, and a ulcer area was S=π×d1×d2×¼ (π=3.14). […]
The analysis was performed by t-test, and normally distributed quantitative data were expressed as mean±standard deviation (X, ±S), one-way ANOVA and LSD methods were used for pairwise comparison, and the Wilcoxon rank-sum test was used when the ANOVA conditions were not met. […]

## Cc1ccc(C(C)C)c(OC(=O)CCC(=O)Oc2c(C)c(C)c3c(c2C)CC[C@@](C)(CCC[C@H](C)CCC[C@H](C)CCCC(C)C)O3)c1 [THY-Tos]
[1]
  solubility (in words): poor solubility
Oral ulcer rats
  efficacy on an animal-based oral ulcer model compared with THY in combination with vitamin E: not significantly different
